The text below walks through data of publication PMC11610137, “TRIM4 enhances small-molecule-induced neddylated-degradation of CORO1A for triple negative breast cancer therapy” (Theranostics, 2024).

pKd: −log10 of the molar value.

This test addresses T1, Coronin 1A (CORO1A) (Homo sapiens, UniProt P31146).
T1 construct: EGFP-tagged CORO1A overexpressed in HEK 293T cells (lysate)
Briefly: MST with EGFP-CORO1A cell lysate; supported by CETSA and DARTS in MDA-MB-231 cells. Format: binding.

T1 sequence (P31146 2-461): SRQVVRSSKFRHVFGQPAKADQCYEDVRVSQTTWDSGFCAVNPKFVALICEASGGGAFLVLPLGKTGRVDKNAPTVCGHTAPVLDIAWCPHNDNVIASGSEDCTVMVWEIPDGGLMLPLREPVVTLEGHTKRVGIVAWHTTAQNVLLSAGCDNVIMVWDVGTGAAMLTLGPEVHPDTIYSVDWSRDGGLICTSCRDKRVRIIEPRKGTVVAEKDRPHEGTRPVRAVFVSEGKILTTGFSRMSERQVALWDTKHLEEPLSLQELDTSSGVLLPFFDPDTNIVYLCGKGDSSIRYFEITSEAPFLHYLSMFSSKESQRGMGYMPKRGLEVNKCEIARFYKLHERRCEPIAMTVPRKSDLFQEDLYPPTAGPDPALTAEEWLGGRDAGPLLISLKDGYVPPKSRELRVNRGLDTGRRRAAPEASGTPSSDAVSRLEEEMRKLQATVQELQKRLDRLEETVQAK

Usually pKd stands for the negative decadic logarithm of the Kd, by convention in mol/L. The substance Aurovertin B [AB] showed a pKd of 6.45.
